Experimental data published in ChEMBL document CHEMBL1156829 (Proc Natl Acad Sci U S A, 2008).

Columns and labels:
Plasmodium falciparum [1] = assay: NOVARTIS: Inhibition of Plasmodium falciparum W2 (drug-resistant) proliferation in erythrocyte-based infection assay; assay type: functional, organism-based; settings: Plasmodium falciparum, W2; read-out: EC50
[2] = NOVARTIS: Cytotoxicity against human hepatocellular carcinoma cell line (Huh7); assay type: toxicity, cell-based, Huh-7; settings: Huh7 cells (hepatocellular carcinoma cell line)
Plasmodium falciparum [3] = assay: NOVARTIS: Inhibition of Plasmodium falciparum 3D7 (drug-susceptible) proliferation in erythrocyte-based infection assay; assay type: functional, organism-based; settings: Plasmodium falciparum, 3D7

## Cc1cccc(NC(=O)c2ccc(NCCCC3CCCCCC3)c([N+](=O)[O-])c2)c1
Plasmodium falciparum [1]
  EC50: 643 nM
[2]
  CC50: 18800 nM
Plasmodium falciparum [3]
  EC50: 441 nM

## COc1ccc(C(=O)C(C#N)=CNC2CCN(Cc3ccccc3)CC2)cc1
Plasmodium falciparum [1]
  EC50: 875 nM
[2]
  CC50: 24800 nM
Plasmodium falciparum [3]
  EC50: 177 nM

## COc1cc2c(cc1OC)C(COc1ccc(F)cc1)N(C(=O)c1ccc(OC(C)C)cc1)CC2 (configuration not stated)
Plasmodium falciparum [1]
  EC50: 1400 nM
[2]
  CC50: > 100000 nM
Plasmodium falciparum [3]
  EC50: 155 nM

## CCC1CCCCN1C(=O)c1cc(-c2ccccc2OC)on1 (configuration not stated)
Plasmodium falciparum [1]
  EC50: 340 nM
[2]
  CC50: > 10000 nM
Plasmodium falciparum [3]
  EC50: > 598 nM

## CC1CCN(C(=O)CSc2nc(NCc3ccccc3)c3ccccc3n2)CC1
Plasmodium falciparum [1]
  EC50: > 1580 nM
[2]
  CC50: > 10000 nM
Plasmodium falciparum [3]
  EC50: 673 nM

## O=C(Nc1ccccc1Cl)c1cc2ccccc2cc1O
Plasmodium falciparum [1]
  EC50: 298 nM
[2]
  CC50: > 100000 nM
Plasmodium falciparum [3]
  EC50: 327 nM

## Clc1ccccc1-c1nc([P+](c2ccccc2)(c2ccccc2)c2ccccc2)c(N2CCOCC2)o1
Plasmodium falciparum [1]
  EC50: 238 nM
[2]
  CC50: 10100 nM
Plasmodium falciparum [3]
  EC50: 350 nM

## Cc1ccc(CN2CCN(Cc3ccccc3)CC2)o1
Plasmodium falciparum [1]
  EC50: 1300 nM
[2]
  CC50: > 8970 nM
Plasmodium falciparum [3]
  EC50: > 1250 nM

## CCN1CCN(c2cc(C)c3cc(NC(=O)c4cc(OC)cc(OC)c4)ccc3n2)CC1
Plasmodium falciparum [1]
  EC50: 587 nM
[2]
  CC50: 12900 nM
Plasmodium falciparum [3]
  EC50: 183 nM

## Cc1ccc(C=NNc2ncnc3nc[nH]c23)cc1
Plasmodium falciparum [1]
  EC50: 804 nM
[2]
  CC50: > 100000 nM
Plasmodium falciparum [3]
  EC50: 697 nM

## c1ccc2[nH]c(CN(Cc3nc4ccccc4[nH]3)Cc3nc4ccccc4[nH]3)nc2c1
Plasmodium falciparum [1]
  EC50: 5260 nM
[2]
  CC50: 26700 nM
Plasmodium falciparum [3]
  EC50: 191 nM

## Cc1ccc(NC2=C(c3ccc(C(F)(F)F)cc3)C(=O)c3ccccc32)cc1F
Plasmodium falciparum [1]
  EC50: 790 nM
[2]
  CC50: > 100000 nM
Plasmodium falciparum [3]
  EC50: 541 nM

## CCOC(=O)C1=C(C)NC2=C(C(=O)CC(c3ccc(OC)c(OC)c3)C2)C1c1ccccc1Cl (configuration not stated)
Plasmodium falciparum [1]
  EC50: 8.74 nM
[2]
  CC50: > 100000 nM
Plasmodium falciparum [3]
  EC50: 5.05 nM

## O=C(Nc1cccc(Oc2ccccc2)c1)NC(CN1CCCC1)c1ccccc1 (configuration not stated)
Plasmodium falciparum [1]
  EC50: 1430 nM
[2]
  CC50: 11800 nM
Plasmodium falciparum [3]
  EC50: 704 nM

## COc1ccc(C(=O)N(C)CCCNc2ccnc3cc(Cl)ccc23)cc1
Plasmodium falciparum [1]
  EC50: 553 nM
[2]
  CC50: > 10000 nM
Plasmodium falciparum [3]
  EC50: 797 nM

## COc1cc(C(=O)OCCC2CCC[N+]3(C)CCCCC23)cc(OC)c1OC (configuration not stated)
Plasmodium falciparum [1]
  EC50: 1340 nM
[2]
  CC50: > 100000 nM
Plasmodium falciparum [3]
  EC50: > 12500 nM

## CC1CCN(C(=O)C(C)N(c2ccccc2)S(C)(=O)=O)CC1 (configuration not stated)
Plasmodium falciparum [1]
  EC50: 8320 nM
[2]
  CC50: > 100000 nM
Plasmodium falciparum [3]
  EC50: 7200 nM

## O=C(C1CC1)N1CCN=C1SCc1ccc(C(F)(F)F)cc1
Plasmodium falciparum [1]
  EC50: > 3700 nM
[2]
  CC50: > 100000 nM
Plasmodium falciparum [3]
  EC50: 6080 nM

## Cc1ccc(OCC(=O)Nc2cccc(-c3nc4ncccc4o3)c2)cc1C
Plasmodium falciparum [1]
  EC50: 2050 nM
[2]
  CC50: > 100000 nM
Plasmodium falciparum [3]
  EC50: 1900 nM

## Oc1cccc(Nc2nc(NCC3CCCO3)c3ccccc3n2)c1 (configuration not stated)
Plasmodium falciparum [1]
  EC50: 341 nM
[2]
  CC50: 6980 nM
Plasmodium falciparum [3]
  EC50: 266 nM

## CC(=O)Nc1nc(C)c(-c2csc(Nc3ccc(Br)cc3)n2)s1
Plasmodium falciparum [1]
  EC50: 859 nM
[2]
  CC50: 38100 nM
Plasmodium falciparum [3]
  EC50: 696 nM

## c1ccc(-c2ccccc2OCCNCCN2CCOCC2)cc1
Plasmodium falciparum [1]
  EC50: 2700 nM
[2]
  CC50: 46800 nM
Plasmodium falciparum [3]
  EC50: 10100 nM

## c1ccc(-c2nc3cc4nc(-c5ccccc5)[nH]c4cc3[nH]2)cc1
Plasmodium falciparum [1]
  EC50: 1200 nM
[2]
  CC50: > 100000 nM
Plasmodium falciparum [3]
  EC50: 285 nM

## C[n+]1c2n(c3ccccc31)N=C(c1ccccc1)C[Se]2
Plasmodium falciparum [1]
  EC50: 832 nM
[2]
  CC50: 23600 nM
Plasmodium falciparum [3]
  EC50: 471 nM

## CCC(=O)N1CCN(C(=O)c2ccc(C)cc2)C1
Plasmodium falciparum [1]
  EC50: 1280 nM
[2]
  CC50: > 10000 nM
Plasmodium falciparum [3]
  EC50: > 1500 nM

## Cc1oc2c(c1C(=O)NCCCn1ccnc1)C(=O)c1ccccc1C2=O
Plasmodium falciparum [1]
  EC50: 39.1 nM
[2]
  CC50: 270 nM
Plasmodium falciparum [3]
  EC50: 90.4 nM

## O=[N+]([O-])c1ccc(NCCNc2nc(N3CCCC3)nc3ccccc23)cc1
Plasmodium falciparum [1]
  EC50: 334 nM
[2]
  CC50: 19200 nM
Plasmodium falciparum [3]
  EC50: 564 nM

## Cc1ccc(-c2cc3c(nn2)-c2ccccc2C3=O)cc1
Plasmodium falciparum [1]
  EC50: 799 nM
[2]
  CC50: 83200 nM
Plasmodium falciparum [3]
  EC50: 2000 nM

## COCCN(CC(=O)Nc1cc(C(C)(C)C)nn1-c1ccc(C)cc1)C(=O)COCc1ccccc1
Plasmodium falciparum [1]
  EC50: > 1250 nM
[2]
  CC50: > 10000 nM
Plasmodium falciparum [3]
  EC50: > 818 nM

## Clc1ccc2c(N3CCCC3)ccnc2c1
Plasmodium falciparum [1]
  EC50: 124 nM
[2]
  CC50: 64500 nM
Plasmodium falciparum [3]
  EC50: 283 nM

## Cc1ccc(C2CC(C(F)(F)F)n3ncc(C(=O)Nc4ccc(OC(F)(F)F)cc4)c3N2)cc1 (configuration not stated)
Plasmodium falciparum [1]
  EC50: 293 nM
[2]
  CC50: > 100000 nM
Plasmodium falciparum [3]
  EC50: 282 nM

## CCOC(=O)C1=C(C)N(c2ccc(OCC)cc2)C(=O)/C1=C\c1ccc(C(C)C)cc1
Plasmodium falciparum [1]
  EC50: 439 nM
[2]
  CC50: > 10000 nM
Plasmodium falciparum [3]
  EC50: > 1280 nM

## COc1cc(CN2CCC3(CC2)CC3C(=O)NCCc2ccccc2OC)ccc1O (configuration not stated)
Plasmodium falciparum [1]
  EC50: 739 nM
[2]
  CC50: > 100000 nM
Plasmodium falciparum [3]
  EC50: 2350 nM

## Cc1cc(N)c2ccccc2[n+]1CCCCCCCCCC[n+]1c(C)cc(N)c2ccccc21 [DEQUALINIUM CHLORIDE]
Plasmodium falciparum [1]
  EC50: 19.7 nM
[2]
  CC50: 31000 nM
Plasmodium falciparum [3]
  EC50: 61.4 nM

## COc1cc(CNc2ccc(N3CCCCC3)cc2)ccc1OCc1ccccc1F
Plasmodium falciparum [1]
  EC50: 335 nM
[2]
  CC50: > 100000 nM
Plasmodium falciparum [3]
  EC50: 475 nM

## Cc1ccn2c(NC(C)(C)CC(C)(C)C)c(-c3ccccc3OC(=O)C3C[C@H]3c3ccccc3)nc2c1 (some centres not stated)
Plasmodium falciparum [1]
  EC50: 55.3 nM
[2]
  CC50: > 10000 nM
Plasmodium falciparum [3]
  EC50: 727 nM

## COc1cc(C(=O)N2C(C(=O)Nc3ccccc3F)CSC2c2ccc(C(C)(C)C)cc2)cc(OC)c1OC (configuration not stated)
Plasmodium falciparum [1]
  EC50: 1280 nM
[2]
  CC50: > 2310 nM
Plasmodium falciparum [3]
  EC50: 1040 nM

## O=C1C2C(C(=O)N1c1ccc(F)cc1)C1(c3ccccc3)C(=O)C2(c2ccccc2)C(c2ccccc2)=C1c1ccccc1 (configuration not stated)
Plasmodium falciparum [1]
  EC50: 474 nM
[2]
  CC50: > 100000 nM
Plasmodium falciparum [3]
  EC50: 563 nM

## CCOC(=O)c1sc(NC(=O)C(C)Sc2nnc(CNC(=O)c3cccc(F)c3)n2-c2cccc(C)c2)c(C(=O)OCC)c1C (configuration not stated)
Plasmodium falciparum [1]
  EC50: 1100 nM
[2]
  CC50: > 100000 nM
Plasmodium falciparum [3]
  EC50: > 12500 nM

## Cc1nc2cc(-c3ccc(I)cc3)nn2c(O)c1C
Plasmodium falciparum [1]
  EC50: 1540 nM
[2]
  CC50: > 100000 nM
Plasmodium falciparum [3]
  EC50: 4200 nM

## CCC(=O)N1c2ccccc2NC2=C(C(=O)CC(C)(C)C2)C1c1ccc2c(c1)OCO2 (configuration not stated)
Plasmodium falciparum [1]
  EC50: 6720 nM
[2]
  CC50: > 100000 nM
Plasmodium falciparum [3]
  EC50: 3530 nM

## Clc1cccc(CSc2nc(Nc3ccc4c(c3)OCO4)c3ccccc3n2)c1
Plasmodium falciparum [1]
  EC50: 2790 nM
[2]
  CC50: > 82900 nM
Plasmodium falciparum [3]
  EC50: 1170 nM

## CCOC(=O)c1nc2nc(C)cc(O)n2n1
Plasmodium falciparum [1]
  EC50: > 940 nM
[2]
  CC50: > 10000 nM
Plasmodium falciparum [3]
  EC50: > 739 nM

## Cc1ccn2c(NC(C)(C)CC(C)(C)C)c(-c3ccccc3OC(=O)Cc3ccccc3)nc2c1
Plasmodium falciparum [1]
  EC50: 21.6 nM
[2]
  CC50: > 10000 nM
Plasmodium falciparum [3]
  EC50: 926 nM

## Cc1cc(C)n(-c2cc(NN=Cc3cc(Br)ccc3O)nc(C)n2)n1
Plasmodium falciparum [1]
  EC50: 154 nM
[2]
  CC50: > 100000 nM
Plasmodium falciparum [3]
  EC50: 237 nM

## FC(F)(F)c1cccc(NC(=S)N2CCCC2c2ccccc2C(F)(F)F)c1 (configuration not stated)
Plasmodium falciparum [1]
  EC50: < 13 nM
[2]
  CC50: > 10000 nM
Plasmodium falciparum [3]
  EC50: 214 nM

## CC[C@@]1(O)C[C@H](O[C@@H]2CC(N(C)C)[C@@H](O[C@@H]3C[C@@H](O)[C@@H](O[C@@H]4CCC(=O)[C@@H](C)O4)C(C)O3)[C@@H](C)O2)c2c(cc3c(c2O)C(=O)c2c(O)ccc(O)c2C3=O)[C@H]1C(=O)OC (some centres not stated)
Plasmodium falciparum [1]
  EC50: 79.2 nM
[2]
  CC50: 3370 nM
Plasmodium falciparum [3]
  EC50: 87.7 nM

## O=C1C(Cc2ccccc2)N=C2c3ccccc3N=C(SCc3ccc(Cl)cc3)N12 (configuration not stated)
Plasmodium falciparum [1]
  EC50: > 1050 nM
[2]
  CC50: > 10000 nM
Plasmodium falciparum [3]
  EC50: > 1250 nM

## CCCCCCN(C(=O)c1ccc2c(c1)OCO2)C(CC)c1nc2ccccc2c(=O)n1-c1ccccc1OC (configuration not stated)
Plasmodium falciparum [1]
  EC50: 647 nM
[2]
  CC50: > 4510 nM
Plasmodium falciparum [3]
  EC50: 862 nM
